The text below walks through data of patent US6080724A, “Peptides which can be used as vectors for the intracellular addressing of active molecules” (Centre National de la Recherche Scientifique (CNRS), priority 1995, dated 2000).

In this assay the test system is E15 cortex and striatum cells. Kind of assay: Cellular localization of biotinylated peptides by confocal microscopy (fluorescent streptavidin). It is filed as cell-based. The settings on record: 2 h. The method, then:
The cells were then washed, fixed and stained with fluorescent streptavidin.
The entry of the peptides of Table II was tested only by confocal microscopy; indeed, the absence of lysine in these peptides makes the attachments very difficult and therefore requires a very rapid observation which is incompatible with transfers onto filters or ELISA tests (multiple washes).
The E15 cortex and striatum cells are cultured on glass coverslips at a density of 25,000 cells/cm^2 for 2 days. The peptides are all added at a final concentration of 20 μM. […] The sections observed by confocal microscopy are presented in FIGS. 3 (37° C.) and 4 (4° C.). The cells which have integrated the peptide appear fluorescent, on a black background.
E15 cortex and striatum cells are cultured on glass coverslips at a density of 25,000 cells/cm^2 for 2 days. The peptides are added at a final concentration of 20 μM for peptide 43-58 and of 2 μM for the others and the cells are incubated for 2 h at 37° C. […] The results are illustrated in FIG. 6.

On to “Biot-Apa-Arg-Gln-Pro-Lys-Ile-Trp-Phe-Pro-Asn-Arg-Arg-Lys-Pro-Trp-Lys-Lys [3Pro]”, for which, for the setting “20 μM, 37° C. and 4° C.”, the internalization entry is recorded as “does not prevent internalization” and the nuclear addressing result is recorded as “appears to interfere with nuclear addressing”. For “Biot-Apa-Arg-Leu-Arg-Arg-Leu-Leu-Arg-Arg-Leu-Leu-Arg-Arg-Leu-Arg-Arg [L/R]”, the “internalization and cytoplasmic and nuclear addressing (localization)” value (2 μM, 37° C., streptavidin-FITC) was “found in a fraction which is apparently of the vesicular type, probably of endocytic character”.
